Assay results as given in patent US5118804A, “Process for preparing alkyl-1-thioglycosides and alkyl-glycosides, anomer mixtures thereof” (Beghin-Say, SA, priority 1989, dated 1992).

Tests used:
[1] = Critical micelle concentration (CMC), Tsuchiya and Saito method; assay type: physicochemical; conditions: α,β anomer mixtures
From the text: The critical micelle concentrations as measured according to the Tsuchiya and Saito method, J. Biochem., 96 (1984), 1593, are set forth in Table 1 for various fatty acid chain alkyl-1-thio-α,β-glycosides prepared according to the present invention.

[2] = test system: cytochromes P-45011β and P-450scc; assay: Extraction of cytochromes P-45011β and P-450scc from mitochondrions of the bovine suprarenal cortex, and inactivation of the proteins; conditions: proteins 20 mg/ml, detergent 15 mg/ml; for Extraction rate [after 1 h] / Inactivation rate [after 1 h]: pH 7.4, after 1 h; for Extraction rate [after 2 h] / Inactivation rate [after 2 h]: pH 7.4, after 2 h
From the text: For example, but without implying any limitation with regard to other uses, several alkyl-1-thio-α,β-glycosides prepared in the manner of the invention were used to extract membrane proteins from the bovine suprarenal cortex. The suprarenal cortex cells contain enzyme systems which cause steroidogenesis. […] In conventionally used methods, they are optimally extracted in the presence of sodium cholate. However, the ionic nature of the sodium cholate detergent results in a greater denaturation rate of the enzymatic proteins as the contact time between the proteins and the sodium cholate is prolonged. Accordingly, and in particular, the sodium cholate detergent presents difficulties when used to reconstitute the lipid environment of these proteins.
(§1) The membrane proteins are extracted by incubation in a suitable buffer containing 50 mM potassium phosphate, pH=7.4, 1 mM dithiothreitol, 1 mM EDTA, and 10 μM desoxycorticosterone. The respective concentrations of proteins and detergents are 20 and 15 mg/ml. Following incubation, the medium is centrifuged (100,000 g, 45 mins.) and the cytochromes P-450 are metered into the supernatant by recording the differential spectrum for the reduced form Fe^2+ and the complex Fe^2+ CO. Denaturation is estimated by the absorption difference measured at 450 nm (native form) and 420 nm (denatured form).

cytochrome P-45017α = assay: Extraction of cytochrome P-45017α from bovine suprarenal cortex microsomes, and inactivation of the protein; design: unit not given here; conditions: 30 mins. at 4° C, proteins 4 mg/ml, detergent 15 mg/ml
From the text: These CMC values allow the glycosides to be used as detergents in membrane protein extraction. For example, but without implying any limitation with regard to other uses, several alkyl-1-thio-α,β-glycosides prepared in the manner of the invention were used to extract membrane proteins from the bovine suprarenal cortex. The suprarenal cortex cells contain enzyme systems which cause steroidogenesis. These are membrane enzymes in the mitochondrions (cytochromes P-45011β and P-450scc) and in the microsomes (cytochrome P-45017α). In conventionally used methods, they are optimally extracted in the presence of sodium cholate. However, the ionic nature of the sodium cholate detergent results in a greater denaturation rate of the enzymatic proteins as the contact time between the proteins and the sodium cholate is prolonged. Accordingly, and in particular, the sodium cholate detergent presents difficulties when used to reconstitute the lipid environment of these proteins.
as §1, with “The mitochondrions of the bovine suprarenal cortex are prepared in the manner of M. Satre & P. V. Vignais (Biochemistry, 13 (1974) 2201). The membrane” for “The membrane”
The extraction of cytochrome P-45017α involved obtaining the bovine suprarenal cortex microsomes in the form of a button after 45 mins. centrifugation at 100,000 g of the post-mitochondrial supernatant. The membrane proteins are extracted as indicated above in reference to Table 2 for 30 mins. at 4° C. The respective concentrations of the proteins and detergents are 4 and 15 mg/ml. Following centrifugation, the activity of cytochrome P-45017α is measured in the supernatant by checking the transformation of (^3 H)-pregnenolone into (^3 H)-17α-hydroxy-pregnenolone.

[3] = Chem. Pharm. Bull., 33 (1985), 503-8; cited from earlier work

Row | SMILES | Critical micelle concentration (CMC) [1] | Extraction rate (cytochrome P-45017α) | Inactivation rate (cytochrome P-45017α) | Extraction rate [after 1 h] [2] | Inactivation rate [after 1 h] [2] | Extraction rate [after 2 h] [2] | Inactivation rate [after 2 h] [2] | CMC of the prior art mentioned in the literature [3]
1 | CCCCCCCSC1O[C@H](CO)[C@@H](O)[C@H](O)[C@H]1O (stereo partly drawn) [1-heptyl-1-thio-α,β-D-glucopyranoside] | 4.1 mM | 85 | 0 | 0% | 48% | 0% | 47% | –
2 | CCCCCCCCSC1O[C@H](CO)[C@@H](O)[C@H](O)[C@H]1O (stereo partly drawn) [1-octyl-1-thio-α,β- -- D-glucopyranoside, 1-octyl-1-thio-α,β-D-glucopyranoside] | 3.0 mM | 93 | 0 | 43% | 60% | 49% | 72% | –
3 | CCCCCCCCO[C@@H]1O[C@H](CO)[C@@H](O)[C@H](O)[C@H]1O [1-octyl-β-D-glucopyranoside, reference compound] | – | 89 | 20 | 0% | 100% | 0% | 100% | –
4 | C[C@H](CCC(=O)O)[C@H]1CC[C@H]2[C@@H]3[C@H](O)C[C@@H]4C[C@H](O)CC[C@]4(C)[C@H]3C[C@H](O)[C@]12C [sodium cholate, reference compound] | – | – | – | 0% | 94% | – | – | –

More lines, main results first:

Row | Critical micelle concentration (CMC) [1] | Extraction rate (cytochrome P-45017α) | Inactivation rate (cytochrome P-45017α) | SMILES | Extraction rate [after 1 h] [2] | Inactivation rate [after 1 h] [2] | Extraction rate [after 2 h] [2] | Inactivation rate [after 2 h] [2] | CMC of the prior art mentioned in the literature [3]
5 | – | 57 | 0 | CCCCCCCSC1O[C@H](CO)[C@@H](O[C@@H]2O[C@H](CO)[C@H](O)[C@H](O)[C@H]2O)[C@H](O)[C@H]1O (stereo partly drawn) [1-heptyl-1-thio-α,β-lactoside] | 0% | 30% | 0% | 50% | –
6 | 0.2 mM | 72 | 0 | CCCCCCCCSC1O[C@H](CO)[C@@H](O[C@@H]2O[C@H](CO)[C@@H](O)[C@H](O)[C@H]2O)[C@H](O)[C@H]1O (stereo partly drawn) [1-octyl-1-thio-α,β-cellobioside] | 0% | 55% | 0% | 20% | –
7 | 0.2 mM | 65 | 57 | CCCCCCCCSC1O[C@H](CO)[C@@H](O[C@@H]2O[C@H](CO)[C@H](O)[C@H](O)[C@H]2O)[C@H](O)[C@H]1O (stereo partly drawn) [1-octyl-1-thio-α,β-lactoside] | 0% | 55% | 0% | 62% | –
8 | 0.2 mM | 58 | 0 | CCCCCCCCSC1O[C@H](CO)[C@@H](O[C@H]2O[C@H](CO)[C@@H](O)[C@H](O)[C@H]2O)[C@H](O)[C@H]1O (stereo partly drawn) [1-octyl-1-thio-α,β-maltoside] | 0% | 48% | 21% | 94% | –
9 | – | 31 | 0 | CCCCCCCCS[C@@H]1O[C@H](CO)[C@@H](O)[C@H](O)[C@H]1O [1-octyl-1-thio-β- -- D-glucopyranoside, 1-octyl-1-thio-β-D-glucopyranoside, reference compound] | 0% | 18% | 48% | 91% | 9.0 mM
